From paper PMC8975978, “Bioassay-guided isolation of cytotoxic constituents from the flowers of Aquilaria sinensis” (Natural Products and Bioprospecting, 2022)
Converted amounts (≈) assume the structure as drawn. Like-named read-outs stand apart in the source and are kept apart here.

How the values were obtained:
[1] = system: human lung adenocarcinoma SPC-A-1 cells; assay: MTS cytotoxicity assay, SPC-A-1; format: cell-based; conditions: read-out: IC50
Procedure: (§1) It had better inhibition against lung cancer cell lines than against other cancer cell lines (Table 1). Thus, the next bioactivity-guided separations were conducted according to the cytotoxicities of the fractions against lung cancer cell lines (A-549, NCI-H520, and SPC-A-1), as well as normal BEAS-2B cells and paclitaxel-resistant lung cancer A549/Taxol cells.
(§2) The cytotoxicity activities were evaluated by MTS assay as previously described.

[2] = system: human lung adenocarcinoma A549 cells; assay: MTS cytotoxicity assay, A549; format: cell-based; conditions: read-out: IC50
Procedure: as §1, §2

[3] = system: human normal bronchial epithelial BEAS-2B cells; assay: MTS cytotoxicity assay, normal BEAS-2B; format: cell-based; conditions: read-out: IC50
Procedure: as §1, §2

[4] = system: human lung squamous cell carcinoma NCI-H520 cells; assay: MTS cytotoxicity assay, NCI-H520; format: cell-based; conditions: read-out: IC50
Procedure: as §1, §2

[5] = system: paclitaxel-resistant A549 (A549/Taxol) cells; assay: MTS cytotoxicity assay, A549/Taxol; format: cell-based, human; conditions: read-out: IC50
Procedure: as §1, §2

[6] = system: human ovarian carcinoma SK-OV-3 cells; assay: MTS cytotoxicity assay, SK-OV-3; format: cell-based; conditions: Homo sapiens; Table 1, SK-OV-3; read-out: IC50
Procedure: as §1, §2

[7] = system: human prostate cancer PC-3 cells; assay: MTS cytotoxicity assay, PC-3; format: cell-based; conditions: Homo sapiens; Table 1, PC-3; read-out: IC50
Procedure: as §1, §2

[8] = system: human neuroblastoma SH-SY5Y cells; assay: MTS cytotoxicity assay, SH-SY5Y; format: cell-based; conditions: Homo sapiens; Table 1, SH-SY5Y; read-out: IC50
Procedure: as §1, §2

[9] = system: human colon cancer Caco2 cells; assay: MTS cytotoxicity assay, Caco2; format: cell-based; conditions: Caco-2, Table 1, Caco2
[10] = system: human leukemia HL-60 cells; assay: MTS cytotoxicity assay, HL-60; format: cell-based; conditions: Homo sapiens; Table 1, HL-60; read-out: IC50
Procedure: as §1, §2

[11] = system: human large cell lung carcinoma NCI-H460 cells; assay: MTS cytotoxicity assay, NCI-H460; format: cell-based; conditions: Homo sapiens; Table 1, NCI-H460; read-out: IC50
Procedure: as §1, §2

[12] = system: human hepatoma SMMC-7721 cells; assay: MTS cytotoxicity assay, SMMC-7721; format: cell-based; conditions: Homo sapiens; Table 1, SMMC-7721; read-out: IC50
[13] = system: human breast cancer MDA-MB-231 cells; assay: MTS cytotoxicity assay, MDA-MB-231; format: cell-based; conditions: Homo sapiens; Table 1, MDA-MB-231; read-out: IC50
Procedure: as §1, §2

[14] = system: human T-cell leukemia MT4 cells; assay: MTS cytotoxicity assay, MT4; format: cell-based; conditions: Homo sapiens; Table 1, MT4; read-out: IC50
Procedure: as §1, §2

[15] = system: human cervical cancer HeLa cells; assay: MTS cytotoxicity assay, HeLa; format: cell-based; conditions: Homo sapiens; Table 1, HeLa; read-out: IC50
Procedure: as §1, §2

[16] = system: human breast cancer MCF-7 cells; assay: MTS cytotoxicity assay, MCF-7; format: cell-based; conditions: Homo sapiens, MCF7; Table 1, MCF-7; read-out: IC50
Procedure: as §1, §2

[17] = system: human small cell lung cancer NCI-H446 cells; assay: MTS cytotoxicity assay, NCI-H446; format: cell-based; conditions: Homo sapiens; Table 1, NCI-H446; read-out: IC50
Procedure: as §1, §2

[18] = system: human colon cancer SW-480 cells; assay: MTS cytotoxicity assay, SW480; format: cell-based; conditions: Homo sapiens; Table 1, SW480; read-out: IC50
Procedure: as §1, §2

SK-MEL cells = system: SK-MEL cells; parameters: method as in PMID 28754541; conditions: cited from earlier work
[19] = system: SPC-A-1, NCI-H520, A549 and A549/Taxol cell lines; assay: MTS cytotoxicity assay, four tested lung cancer cell lines together; format: cell-based, human; conditions: four tested cancer cell lines taken together (SPC-A-1, NCI-H520, A549, A549/Taxol)
Procedure: Thus, the next bioactivity-guided separations were conducted according to the cytotoxicities of the fractions against lung cancer cell lines (A-549, NCI-H520, and SPC-A-1), as well as normal BEAS-2B cells and paclitaxel-resistant lung cancer A549/Taxol cells.
Isolates 1–6 were evaluated for their cytotoxicities against SPC-A-1, NCI-H520, A549, A549/Taxol, and BEAS-2B cell lines (Table 5).
as §2

[20] = Homo sapiens, SPCA1, Table 5, SPC-A-1
[21] = Homo sapiens, BEAS-2B, Table 5, BEAS-2B normal cells
[22] = Homo sapiens, Table 5, NCI-H520
[23] = Homo sapiens, A549/Taxol, Table 5, A549/Taxol

COc1ccc(CCc2cc(=O)c3cc(OC)c(O)cc3o2)cc1 [Compound 6, 7-hydroxy-6-methoxy-2-[2-(4-methoxyphenyl)ethyl]-4H-1-benzopyran-4-one] showed an IC50 [1, 20] of 1130 ± 30 nM, an IC50 ([2]; Homo sapiens, Table 5, A549) of 1520 ± 60 nM and an IC50 [3, 21] of over 40000 nM. For the same molecule, the IC50 [4, 22] was 1840 ± 160 nM and the IC50 [5, 23] was 910 ± 10 nM.

CC(=O)O[C@H]1C(=O)[C@@]2(C)[C@H]([C@H](OC(=O)c3ccccc3)[C@]3(O)C[C@H](OC(=O)[C@H](O)[C@@H](NC(=O)c4ccccc4)c4ccccc4)C(C)=C1C3(C)C)[C@]1(OC(C)=O)CO[C@@H]1C[C@@H]2O [Paclitaxel] gave an IC50 [6] of under 0.007 µg/mL, an IC50 [7] of under 0.007 µg/mL and an IC50 [8] of 0.008 ± 0.001 µg/mL (≈ 9.37 nM). It also gave an IC50 [9] of 0.02 ± 0.02 µg/mL (≈ 23.4 nM), an IC50 ([1]; Homo sapiens, SPCA1, Table 1, SPC-A-1) of under 0.007 µg/mL and an IC50 [1, 20] of under 8 nM. For the same molecule, the IC50 [10] was under 0.007 µg/mL, the IC50 [11] was under 0.007 µg/mL and the IC50 ([2]; Homo sapiens, Table 1, A549) was under 0.007 µg/mL. It also gave an IC50 ([2]; Homo sapiens, Table 5, A549) of under 8 nM, an IC50 [12] of 0.15 ± 0.02 µg/mL (≈ 176 nM) and an IC50 [13] of under 0.007 µg/mL. The IC50 [14] was under 0.008 µg/mL, the IC50 ([3]; Homo sapiens, BEAS-2B, Table 1, BEAS-2B normal cells) was 3.66 ± 0.3 µg/mL and the IC50 ([3]; Homo sapiens, BEAS-2B, Table 2, BEAS-2B normal cells) was 1.85 ± 0.19 µg/mL. It also gave an IC50 ([3]; Homo sapiens, BEAS-2B, Table 3, BEAS-2B normal cells) of 2.04 ± 0.11 µg/mL, an IC50 ([3]; Homo sapiens, BEAS-2B, Table 4, BEAS-2B normal cells) of 1.94 ± 0.11 µg/mL and an IC50 [3, 21] of over 5000 nM. The IC50 [15] was under 0.007 µg/mL, the IC50 [16] was under 0.007 µg/mL and the IC50 [17] was under 0.007 µg/mL. It also gave an IC50 ([4]; Homo sapiens, Table 1, NCI-H520) of under 0.007 µg/mL, an IC50 [4, 22] of under 8 nM and an IC50 [18] of under 0.007 µg/mL. For the same molecule, the IC50 ([5]; Homo sapiens, A549/Taxol, Table 2, A549/Taxol) was 0.54 ± 0.09 µg/mL, the IC50 ([5]; Homo sapiens, A549/Taxol, Table 3, A549/Taxol) was 1.45 ± 0.12 µg/mL and the IC50 ([5]; Homo sapiens, A549/Taxol, Table 4, A549/Taxol) was 0.96 ± 0.05 µg/mL. For the same molecule, the IC50 [5, 23] was 1800 ± 130 nM.

For aquilaside B, the IC50 (SK-MEL cells) is listed as 17000 nM.

In the case of aquilaside C, the IC50 (SK-MEL cells) is given as 12000 nM.

Work on cucurbitacin B [Compound 4] yielded an IC50 ([1]; Table 5, SPC-A-1) of 16 nM, an IC50 [19] of at most 30 nM and an IC50 ([2]; Table 5, A549) of 30 nM. For the same molecule, the IC50 ([3]; Table 5, BEAS-2B normal cells) was 14400 ± 1360 nM, the IC50 ([4]; Table 5, NCI-H520) was 2 nM and the IC50 ([5]; Table 5, A549/Taxol) was 7 ± 1 nM.
